The test addresses T1, Polyphenol oxidase 2 (Agaricus bisporus, UniProt O42713).
T1 sequence (O42713 whole entry): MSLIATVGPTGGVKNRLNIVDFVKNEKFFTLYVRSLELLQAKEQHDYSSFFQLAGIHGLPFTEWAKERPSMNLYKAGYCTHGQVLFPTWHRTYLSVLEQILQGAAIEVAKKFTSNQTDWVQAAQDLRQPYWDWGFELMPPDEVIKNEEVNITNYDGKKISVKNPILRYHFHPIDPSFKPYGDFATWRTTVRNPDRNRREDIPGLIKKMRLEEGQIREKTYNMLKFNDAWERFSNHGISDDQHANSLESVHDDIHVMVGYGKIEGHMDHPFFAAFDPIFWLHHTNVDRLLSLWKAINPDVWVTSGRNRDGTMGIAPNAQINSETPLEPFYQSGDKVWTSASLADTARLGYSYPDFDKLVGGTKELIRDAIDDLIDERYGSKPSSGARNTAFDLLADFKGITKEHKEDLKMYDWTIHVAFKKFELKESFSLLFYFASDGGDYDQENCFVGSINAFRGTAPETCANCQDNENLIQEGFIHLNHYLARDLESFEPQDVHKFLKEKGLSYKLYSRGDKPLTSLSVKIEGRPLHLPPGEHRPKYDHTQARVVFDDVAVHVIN
As to the kind of experiment: Inhibition of mushroom tyrosinase.

Some results are limits rather than exact numbers.

`CC(=O)OC[C@H]1O[C@@H](Oc2ccc(CN=O)cc2)[C@H](OC(C)=O)[C@@H](OC(C)=O)[C@@H]1OC(C)=O` displayed an IC50 of over 200 µM.

For `O=NCc1ccc(O[C@@H]2O[C@H](CO)[C@@H](O)[C@H](O)[C@H]2O)cc1`, the IC50 is over 200 µM.

In the case of `O=NCc1ccc(O[C@@H]2O[C@H](CO)[C@@H](O)[C@@H](O)[C@H]2O)cc1` [4-((2S,3R,4R,5S,6R)-3,4,5-trihydroxy-6-(hydroxymethyl)tetrahydro-2H-pyran-2-yloxy)benzaldehyde oxime], the 50% inhibitory concentration (IC50) was over 200 µM.

`CC(=O)OC[C@H]1O[C@@H](Oc2ccc(CN=O)cc2)[C@H](OC(C)=O)[C@H](OC(C)=O)[C@@H]1OC(C)=O` [(2R,3R,4R,5R,6S)-2-(acetoxymethyl)-6-(4-((hydroxyimino)methyl)phenoxy)tetrahydro-2H-pyran-3,4,5-triyl triacetate] displayed an IC50 of over 200 µM.

On to `O=NCc1ccc(O[C@@H]2O[C@H](COC(=O)c3ccccc3)[C@@H](OC(=O)c3ccccc3)[C@@H](OC(=O)c3ccccc3)[C@H]2OC(=O)c2ccccc2)cc1` [(2R,3R,4R,5R,6S)-2-(benzoyloxymethyl)-6-(4-((hydroxyimino)methyl)phenoxy)tetrahydro-2H-pyran-3,4,5-triyl tribenzoate], for which the IC50 was over 200 µM.

Take `CC(=O)OC[C@H]1O[C@@H](Oc2ccc(CN=O)cc2)[C@H](OC(C)=O)[C@@H](OC(C)=O)[C@H]1OC(C)=O` [(2R,3S,4S,5R,6S)-2-(acetoxymethyl)-6-(4-((hydroxyimino)methyl)phenoxy)tetrahydro-2H-pyran-3,4,5-triyl triacetate]: the IC50 is over 200 µM.

With `CC(=O)OC[C@H]1O[C@@H](O[C@H]2[C@H](OC(C)=O)[C@@H](OC(C)=O)[C@H](Oc3ccc(CN=O)cc3)O[C@@H]2COC(C)=O)[C@H](OC(C)=O)[C@@H](OC(C)=O)[C@H]1OC(C)=O` [(2R,3S,4S,5R,6S)-2-(acetoxymethyl)-6-((2R,3R,4S,5R,6S)-4,5-diacetoxy-2-(acetoxymethyl)-6-(4-((hydroxyimino)methyl)phenoxy)tetrahydro-2H-pyran-3-yloxy)tetrahydro-2H-pyran-3,4,5-triyl triacetate], the IC50 is over 200 µM.

`O=NCc1ccc(O[C@@H]2OC[C@@H](OC(=O)c3ccccc3)[C@H](OC(=O)c3ccccc3)[C@H]2OC(=O)c2ccccc2)cc1` [(2S,3R,4S,5R)-2-(4-((hydroxyimino)methyl)phenoxy)tetrahydro-2H-pyran-3,4,5-triyl tribenzoate] registered an IC50 of over 200 µM.

Source of the values: BindingDB's records for doi:10.1016/j.bmcl.2009.09.018 (Sun Yat-Sen University, 2009).
